Reference: patent US20230159583A1, “COMPOUND FOR TREATING GOUT, PREPARATION METHOD THEREFOR, AND USE THEREOF” (Huazhong Pharmaceutical Co., Ltd., priority 2020, published 2023)
Read-outs that look alike come from different tables or passages of the source.

Experiments:
Format in all cases: in vivo
[1] = test system: ICR mice; settings: p.o.
Experimental: The experiment was designed according to the “Technical Guideline for Acute Toxicity Test of Chemical Drugs” issued by the State Food and Drug Administration in March 2005. The doses administered were 4 g/kg, 4.91 g/kg, 6.14 g/kg, 7.68 g/kg, 9.6 g/kg, 12 g/kg, and 15 g/kg (the dose could be adjusted according to the actual test results), 12 ICR mice per dose group. If the administration volume is greater than 0.5 ml, it is better to perform the drug administration in two or more times (Note: according to the national standard GB 15193.3-2014, if multiple drug administrations are required, the time interval should be 4 h to 6 h each time, and the patient should be fasted on the day before drug administration).

[2] = test system: rat paw swelling induced by monosodium urate (MSU); assay: rat paw swelling model induced by monosodium urate (MSU); settings: for inhibition in vivo at 90 mg/kg / inhibition in vivo at 0.36 mg/kg / inhibition in vivo at 1.8 mg/kg / inhibition in vivo at 9 mg/kg / change in vivo at 90 mg/kg: Rattus norvegicus, po; for inhibition in vivo at 90 mg/kg / inhibition in vivo at 0.36 mg/kg / inhibition in vivo at 1.8 mg/kg / inhibition in vivo at 9 mg/kg: 1 h, read-out: Swelling inhibition rate; for inhibition in vivo at 0.36 mg/kg: dosage 0.36 mg/kg; for inhibition in vivo at 1.8 mg/kg: dosage 1.8 mg/kg; for inhibition in vivo at 9 mg/kg: dosage 9 mg/kg; for change in vivo at 90 mg/kg: read-out: Swelling degree; for Mean volume of paw after administration: 1 h after onset of inflammation (50 μL 2% MSU)
Description: Gout is a disease unique to human, and gouty arthritis is an inflammatory reaction caused by the deposition of monosodium urate (MSU) in local joint tissues. Since purine metabolism pathways in some mammals such as mice and rabbits are different from those in humans, it is impossible to construct a gouty arthritis model by the method of interfering with purine metabolism disorders, so the most direct method for causing gouty arthritis is to directly inject MSU into the joint cavity of the model animal. The model is only used for simulating local joint inflammation of gout, is suitable for observation of local arthritis symptoms, is a common method for screening anti-inflammatory effects of gout drugs at present, and has the advantages of stability, easy operation and the like. (Reference: Li Na, Hua Long, and Yuan Hui. Research progress of gout animal models [J]. Medical theory and practice, 2016(24).
The anti-gout effect of the compound prepared in the above Example was detected by using a rat paw swelling model induced by monosodium urate (MSU), and the control sample was methylprednisolone.
Experimental method: MSU was used as an inflammatory agent, injected subcutaneously into the hind paws of rats to cause paw swelling, and then the volume of the paws was measured, and the swelling rates and swelling inhibition rates of the treatment group and the control group were compared. On the day of the experiment, the volume of right hind paw (ml) of each rat was measured firstly, and then after the onset of inflammation, the volume of right hind paw was measured so that the difference of volume of paw before and after inflammation was swelling degree, and the swelling inhibition rate of paw (swelling inhibition rate %=(C−T)/C*100%); C=swelling rate of the control group %, and T=swelling rate of the treatment group) was calculated. This method is one of the commonly used methods for screening anti-inflammatory effects of gout drugs, and the model is stable and easy to operate.
(2) One week before the subcutaneous injection of MSU into the feet and soles of the rats, the rats were given different doses of the test drugs, and the drugs were given by gavage once a day, for seven consecutive days. The circumference of the right hind paw was marked and measured before the last administration, and the average value of the two measurements was taken as the standard. 1 h after the last administration, animals in other groups were given 50 μL of 2% MSU in addition to the blank control group, and the paw circumference was measured 1 h after the onset of inflammation. […]

[3] = test system: carrageenan-induced mouse paw swelling; assay: carrageenan-induced mouse paw swelling model; settings: for Circumference of the paw after administration: 180 min after onset of inflammation (0.5% carrageenan); for inhibition in vivo at 0.26 mg/kg / inhibition in vivo at 13 mg/kg / inhibition in vivo at 130 mg/kg / change in vivo at 130 mg/kg: Mus musculus, po, 3 h; for inhibition in vivo at 0.26 mg/kg: dosage 0.26 mg/kg; for inhibition in vivo at 0.26 mg/kg / inhibition in vivo at 13 mg/kg / inhibition in vivo at 130 mg/kg: read-out: Swelling inhibition rate; for inhibition in vivo at 13 mg/kg: dosage 13 mg/kg; for change in vivo at 130 mg/kg: read-out: Swelling degree
Experimental: The anti-inflammatory effects of the compounds prepared in the above Examples were detected using a carrageenan-induced mouse paw swelling model, and the control sample was methylprednisolone:
Carrageenan-induced mouse paw swelling model is a classical acute inflammation model commonly used for evaluating or screening anti-inflammatory effects of drugs. When carrageenan is injected into the paw of mice, a series of reactions similar to human acute inflammation such as local capillary dilatation, increased vascular permeability, exudation and edema can be caused, so the model can be widely used in the evaluation of new drugs.
Reference for experimental method: Yang Huan, Cheng Xiao, Wang Yuehua, Du Guanhua. Effects of esculin on the swelling of toes and inflammation induced by carrageenan in mice [J]. Chinese Journal of New Drugs, 2016(25):2322.
On the day of the experiment, the circumference of right hind paw (cm) of each mouse was measured firstly, and then, after the onset of inflammation, the circumference of right hind paw was measured so that the difference of the circumferences of the paws before and after inflammation was swelling degree, and the swelling inhibition rate of paw (swelling inhibition rate %=(C−T)/C*100%); C=swelling rate of the control group %, and T=swelling rate of the treatment group) was calculated.
(2) Gavage administration was performed once a day for seven consecutive days. The circumference of the right hind paw was marked and measured before the last administration, and the average value of the two measurements was taken as the standard. 30 min after the last administration, 20 μL/mice of 0.5% carrageenan was injected into the right hind ankle of the mice to induce inflammation, and the circumference of paw was measured 180 min after the onset of inflammation. […]

[4] = SD rats, 90 mg/kg by gavage once a day for seven days, 1 h after onset of inflammation
[5] = rat, MSU-induced paw swelling, dosage 90 mg/kg
[6] = SD rats, 90 mg/kg by gavage once a day for seven days
[7] = ICR mice, 130 mg/kg by gavage once a day for seven days, 180 min after onset of inflammation
[8] = ICR mice, 130 mg/kg by gavage once a day for seven days
[9] = mouse, carrageenan-induced paw swelling
[10] = mouse, carrageenan-induced paw swelling, dosage 130 mg/kg

Row | SMILES | Mortality ([1]; 4 g/kg) | Mortality ([1]; 4.91 g/kg) | Mortality ([1]; 6.14 g/kg) | Mortality ([1]; 7.68 g/kg) | Mortality ([1]; 9.6 g/kg) | Mortality ([1]; 12 g/kg) | Mortality ([1]; 15 g/kg) | inhibition in vivo at 90 mg/kg [2, 4] [%] | inhibition in vivo at 0.36 mg/kg ([2]; rat, MSU-induced paw swelling) [%] | inhibition in vivo at 1.8 mg/kg ([2]; rat, MSU-induced paw swelling) [%] | inhibition in vivo at 9 mg/kg ([2]; rat, MSU-induced paw swelling) [%] | inhibition in vivo at 90 mg/kg [2, 5] [%] | change in vivo at 90 mg/kg [2, 4] [%] | Swelling value [2, 4] [mL] | Mean volume of paw after administration [2, 6] [mL] | Swelling value [3, 7] [cm] | Circumference of the paw after administration [3, 8] [cm] | inhibition in vivo at 0.26 mg/kg [3, 9] [%] | inhibition in vivo at 13 mg/kg [3, 9] [%] | inhibition in vivo at 130 mg/kg [3, 10] [%] | also measured
1 | C[C@@H]1C[C@H]2[C@@H]3CCC4=CC(=NO)C=C[C@]4(C)[C@H]3[C@@H](O)C[C@]2(C)[C@H]1/C(CO)=N/O [Example 10] | 0/12 | 0/12 | 1/12 | 1/12 | 3/12 | 4/12 | 5/12 | 68.9 | 9.21 | 32.1 | 51.2 | 65.2 | 102 | 1.24 | 2.45 | 0.11 | 1.58 | 8.12 | 30.9 | 62.4 | change in vivo at 130 mg/kg [3, 7]: 7.48%; inhibition in vivo at 130 mg/kg [3, 7]: 61.3%
2 | CC(=O)OC/C(=N\O)[C@@]1(O)CC[C@H]2[C@@H]3CCC4=CC(=NO)CC[C@]4(C)[C@H]3[C@@H](O)C[C@@]21C [Example 5, (2E)-2-((8S,9S,10R,11S,13S,14S,17R)-11,17-dihydroxy-3-(hydroxyimino)-10,13-dimethyl-2,3,6,7,8,9,10,11,12,13,14,15,16,17-tetrahydro-1H-cyclopentane[α]phenanthroyl)-2-(hydroxyimino)ethyl acetate] | 0/12 | 0/12 | 0/12 | 0/12 | 1/12 | 2/12 | 4/12 | 82.1 | 23.4 | 35.3 | 56.3 | 80.1 | 59 | 0.72 | 1.94 | 0.04 | 1.52 | 13.5 | 56.8 | 88.1 | change in vivo at 130 mg/kg [3, 7]: 2.7%; inhibition in vivo at 130 mg/kg [3, 7]: 86%
3 | C[C@H]1C[C@@H]2[C@H]([C@@H](O)C[C@@]3(C)[C@H]2CC[C@]3(O)/C(CO)=N/O)[C@@]2(C)C=CC(=NO)C=C12 [Example 1, (6S,8S, 9S, 10R, 11S, 13S, 14S, 17R)-11,17-dihydroxy-17-((E)-2-hydroxy-1-(hydroxyimino)ethyl)-6,10,13-trimethyl-6,7,8,9,10,11,12,13,14,15,16,17-dodecahydro-3H-cyclopentane[α]phenanthrene-3-one oxime] | 0/12 | 0/12 | 0/12 | 0/12 | 0/12 | 0/12 | 0/12 | 99.7 | 12.1 | 45.2 | 68.2 | 97.4 | 0.85 | 0.01 | 1.19 | 0.01 | 1.46 | 10.3 | 58.1 | 97.4 | change in vivo at 130 mg/kg [3, 7]: 0.69%; inhibition in vivo at 130 mg/kg [3, 7]: 96.4%
4 | CCCCC(=O)O[C@]1(/C(CO)=N/O)CC[C@H]2[C@@H]3C[C@H](C)C4=CC(=NO)C=C[C@]4(C)[C@H]3[C@@H](O)C[C@@]21C [Example 17, (6S,8S,9S,10R,11S,13S,14S,17R,E)-11-hydroxy-17-((E)-2-hydroxy-1-(hydroxyimino)ethyl)-3-(hydroxyimino)-6,10,13-trimethyl-6,7,8,9,10,11,12,13,14,15,16,17-dodecahydro-3H-cyclopentane[α]phenanthrene-17-yl valerate] | 0/12 | 0/12 | 0/12 | 0/12 | 0/12 | 0/12 | 0/12 | 96.4 | 10.3 | 56.1 | 78.2 | 97 | 11.9 | 0.14 | 1.32 | 0.01 | 1.43 | 28.2 | 60.3 | 98.7 | change in vivo at 130 mg/kg [3, 7]: 0.7%; inhibition in vivo at 130 mg/kg [3, 7]: 96.4%
5 | CCON=C1C=C[C@@]2(C)C(=C1)CC[C@@H]1[C@@H]2[C@@H](O)C[C@@]2(C)[C@H]1C[C@@H](C)[C@]2(O)/C(COC(C)=O)=N/OCC [Example 11] | 0/12 | 0/12 | 0/12 | 0/12 | 0/12 | 0/12 | 0/12 | 64.7 | 10.2 | 35.2 | 49 | 67.5 | 116 | 1.42 | 2.64 | 0.1 | 1.53 | 15.5 | 35.8 | 68.1 | change in vivo at 130 mg/kg [3, 7]: 6.99%; inhibition in vivo at 130 mg/kg [3, 7]: 63.9%
